This is an account of results in ChEMBL document CHEMBL3608221, “Regulating the master regulator: Controlling heat shock factor 1 as a chemotherapy approach” (Bioorg Med Chem Lett, 2015).

The term IC50 denotes the concentration that inhibits the measured activity by half. The term inhibition in vivo denotes the drop in the measured response relative to a control, in per cent.

Assay [1] concerns the target T1, Heat shock factor protein 1 (Homo sapiens) (UniProt Q00613).
T1 sequence (whole entry): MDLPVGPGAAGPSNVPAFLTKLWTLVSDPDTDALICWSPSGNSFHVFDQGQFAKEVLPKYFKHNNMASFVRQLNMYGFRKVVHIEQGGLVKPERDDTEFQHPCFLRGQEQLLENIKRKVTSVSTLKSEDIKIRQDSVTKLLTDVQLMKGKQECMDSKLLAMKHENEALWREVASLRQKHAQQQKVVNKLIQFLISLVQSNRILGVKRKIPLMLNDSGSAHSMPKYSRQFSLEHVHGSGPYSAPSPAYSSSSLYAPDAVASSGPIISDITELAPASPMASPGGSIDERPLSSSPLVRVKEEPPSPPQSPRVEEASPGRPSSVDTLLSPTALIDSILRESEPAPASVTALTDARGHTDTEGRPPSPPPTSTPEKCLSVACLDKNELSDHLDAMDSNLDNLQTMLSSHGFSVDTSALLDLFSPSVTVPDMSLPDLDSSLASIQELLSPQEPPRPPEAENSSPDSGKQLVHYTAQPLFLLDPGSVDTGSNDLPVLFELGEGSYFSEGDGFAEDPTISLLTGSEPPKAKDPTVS
Briefly: Inhibition of HSF1 in human INA63 cells assessed as potentiation of NVP-AUY-922-induced reduction in cell proliferation at 5 nM relative to NVP-AUY-922 alone. Also noted: scale not given: the % may be the effect or the level left. The assay is classed as cell-based.

Assay [2] concerns the target T1, Heat shock factor protein 1 (Homo sapiens). Briefly: Inhibition of HSF1 in human MM.1S cells assessed as potentiation of NVP-AUY-922-induced reduction in cell proliferation at 6 nM relative to NVP-AUY-922 alone. The assay is classed as cell-based. Set-up: scale not given: the % may be the effect or the level left.
For assay [3] the target is unchanged. Briefly: Inhibition of HSF1 in human H929 cells assessed as potentiation of 17-AAG-induced icrease in cell death at 100 nM relative to 17-AAG alone. The assay is classed as cell-based. Also noted: scale not given: the % may be the effect or the level left.
Assay [4] shares this target. Briefly: Inhibition of HSF1 in human HeLa cells assessed as potentiation of radicicol and heat-induced increase in cell death at 60 nM relative to radicicol and heat alone. Set-up: scale not given: the % may be the effect or the level left. The assay is classed as cell-based.
The target of assay [5] is T2, Heat shock factor protein 1 (Homo sapiens, UniProt Q00613).
T2 sequence (Q00613 whole entry): T1 sequence (whole entry)
Briefly: Inhibition of HSF1 (unknown origin) assessed as reduction in HSF1--mediated HSP transcription.

The test system of assay [6] is HCT-116. Briefly: Antitumor activity against human HCT116 cells xenografted in mouse assessed as reduction in tumor size at 50 mg/kg. The assay is classed as functional.
The test system of assay [7] is A-375. Briefly: Cytotoxicity against human A375 cells in absence of HSF1 knock down treatment. The assay is classed as functional, cell-based.
Assay [8] concerns A2058. Briefly: Cytotoxicity against human A2058 cells in absence of HSF1 knock down treatment. The assay is classed as functional, cell-based.
Assay [9] concerns A-375. Briefly: Cytotoxicity against human A375 cells in presence of HSF1 knock down treatment. The assay is classed as functional, cell-based.
In assay [10] the test system is A2058. Briefly: Cytotoxicity against human A2058 cells in presence of HSF1 knock down treatment. The assay is classed as functional, cell-based.
Assay [11] addresses T1, Heat shock factor protein 1 (Homo sapiens). Briefly: Inhibition of HSF1 in human HeLa cells assessed as potentiation of radicicol-induced increase in cell death at 2 uM relative to radicicol alone. The assay is classed as cell-based. Also noted: scale not given: the % may be the effect or the level left.
For assay [12] the target is unchanged. Briefly: Inhibition of HSF1 in human HCT116 cells assessed as potentiation of SM253-induced increase in cell death at 5 uM relative to SM253 alone. The assay is classed as cell-based. Set-up: scale not given: the % may be the effect or the level left. The settings on record: HCT-116.
Assay [13] shares this target. Briefly: Inhibition of HSF1 in human HCT116 cells assessed as potentiation of SM253-induced reduction in HSF1 at 5 uM relative to SM253 alone. The assay is classed as cell-based. Also noted: scale not given: the % may be the effect or the level left. The settings on record: HCT-116.
For assay [14] the target is unchanged. Briefly: Inhibition of HSF1 in human HCT116 cells assessed as potentiation of SM253-induced increase in cell death at 50 uM relative to SM253 alone. The assay is classed as cell-based. Set-up: scale not given: the % may be the effect or the level left. The settings on record: HCT-116.
Assay [15] shares this target. Briefly: Inhibition of HSF1 in human HCT116 cells assessed as potentiation of SM253-induced reduction in HSF1 at 50 uM relative to SM253 alone. The settings on record: HCT-116. The assay is classed as cell-based. Also noted: scale not given: the % may be the effect or the level left.
The target is the same in assay [16]. Briefly: Inhibition of HSF1 in human MIAPaCa2 cells assessed as potentiation of SM253-induced increase in cell death at 50 uM relative to SM253 alone. The assay is classed as cell-based. Also noted: scale not given: the % may be the effect or the level left. The settings on record: MIA PaCa-2.
Assay [17] has the same target. Briefly: Inhibition of HSF1 in human MIAPaCa2 cells assessed as potentiation of SM253-induced reduction in HSF1 at 50 uM relative to SM253 alone. The assay is classed as cell-based. Set-up: scale not given: the % may be the effect or the level left. The settings on record: MIA PaCa-2.
The target is the same in assay [18]. Briefly: Inhibition of HSF1 in human HCT116 cells assessed as potentiation of SM258-induced increase in cell death at 15 uM relative to SM258 alone. The settings on record: HCT-116. The assay is classed as cell-based. Also noted: scale not given: the % may be the effect or the level left.
For assay [19] the target is unchanged. Briefly: Inhibition of HSF1 in human HCT116 cells assessed as potentiation of SM258-induced reduction in HSF1 at 15 uM relative to SM258 alone. Set-up: scale not given: the % may be the effect or the level left. The settings on record: HCT-116. The assay is classed as cell-based.
The target is the same in assay [20]. Briefly: Inhibition of HSF1 in human HCT116 cells assessed as potentiation of SM258-induced increase in cell death at 30 uM relative to SM258 alone. The assay is classed as cell-based. Also noted: scale not given: the % may be the effect or the level left. The settings on record: HCT-116.
Assay [21] has the same target. Briefly: Inhibition of HSF1 in human HCT116 cells assessed as potentiation of SM258-induced reduction in HSF1 at 30 uM relative to SM258 alone. The assay is classed as cell-based. Set-up: scale not given: the % may be the effect or the level left. The settings on record: HCT-116.
Assay [22] shares this target. Briefly: Inhibition of HSF1 in human HL60 cells assessed as potentiation of 17-AAG-induced reduction in cologenicity at 400 uM relative to 17-AAG alone. Also noted: scale not given: the % may be the effect or the level left. The assay is classed as cell-based. The settings on record: HL-60.
Assay [23] has the same target. Briefly: Inhibition of HSF1 in human HL60 cells assessed as potentiation of 17-AAG-induced increase in apoptosis at 400 uM relative to 17-AAG alone. The assay is classed as cell-based. Set-up: scale not given: the % may be the effect or the level left. The settings on record: HL-60.
Assay [24] shares this target. Briefly: Inhibition of HSF1 in human ASB145 cells assessed as potentiation of geldanamycin-induced reduction in cell proliferation at 20 uM relative to geldanamycin alone. The assay is classed as cell-based. Also noted: scale not given: the % may be the effect or the level left.
Assay [25] shares this target. Briefly: Inhibition of HSF1 in human ASB244 cells assessed as potentiation of geldanamycin-induced reduction in cell proliferation at 20 uM relative to geldanamycin alone. The assay is classed as cell-based. Set-up: scale not given: the % may be the effect or the level left.
For assay [26] the target is unchanged. Briefly: Inhibition of HSF1 in human ASB244 cells assessed as potentiation of geldanamycin-induced reduction in cell migration at 10 uM relative to geldanamycin alone. The assay is classed as cell-based. Also noted: scale not given: the % may be the effect or the level left.
Assay [27] in a line: Induction of cell death in human PANC1 cells at 50 uM. The assay is classed as functional, PANC-1.
Assay [28] is described as follows: Induction of cell death in human MIAPaCa2 cells at 50 uM. The assay is classed as functional, MIA PaCa-2.
A short description of assay [29]: Antitumor activity against human MIAPaCa2 cells xenografted in mouse assessed as reduction in tumor volume at 150 mg/kg. The assay is classed as functional, MIA PaCa-2. Set-up: scale not given: the % may be the effect or the level left. On the technique in general: Xenograft models place foreign cells or tissue in a host animal.

Turning to `CC(C)[C@]12O[C@H]1[C@@H]1O[C@]13[C@]1(O[C@H]1C[C@H]1C4=C(CC[C@@]13C)C(=O)OC4)[C@@H]2O`, the Activity in assay [1] stood at 45%; in assay [2], 35%; in [3], 40%; in assay [4] it was 45%.

As to `CNc1ccc([N+](=O)[O-])c(Nc2ccc3[nH]ncc3c2)n1`, the IC50 in assay [5] was determined as 1200 nM. In addition, the inhibition in vivo at 50 mg/kg in assay [6] worked out at 50%.

Consider `COc1cccc(-c2cc(F)ccc2[C@H]2Cc3nc(N)nc(C)c3C(=O)N2)n1`, for which the half-maximal inhibitory concentration (IC50) in [7] came to 19 nM; in assay [8], 12.7 nM; in assay [9], 6 nM; in [10], 5.2 nM.

Take `CCC1CN2CCc3cc(OC)c(OC)cc3C2CC1CC1NCCc2ccccc21` (centres undefined): the Activity came to 30% in assay [11]; 50% in assay [12]; 30% in assay [13]; 77% in assay [14]; 60% in [15]; 64% in assay [16]. Further, the Activity in assay [17] is 55%; in assay [18] it was 77%; in assay [19], 50%; in assay [20], 95%; in assay [21] it was > 99%.

In the case of `O=CN1CC/C(=C/c2ccc3c(c2)OCO3)C1=O`, the Activity in [22] turned out to be 99%; in [23], 20%; in assay [24] it was 72%; in assay [25], 52%; in [26], 75%.

As for `CCCCCCCc1ccc(C#Cc2nc(C(N)=O)n([C@@H]3O[C@H](CO)[C@@H](O)[C@H]3O)n2)cc1`, the Activity turned out to be 80% in [27], 90% in assay [28] and 60% in assay [29].
